Test results as given in patent EP0534995B1, “INCLUSION COMPOUNDS OF NIMESULIDE WITH CYCLODEXTRINS” (BOEHRINGER INGELHEIM ITALIA S.p.A., priority 1990, dated 1991).

Columns and labels:
in vivo = details: male, Beagle, dog, plasma, po, 10 mg/kg
Procedure: (§1) Plasma kinetics were carried out in dog after oral administration of equivalent dosages of nimesulide and inclusion compound nimesulide -β-cyclodextrin according to a crossover scheme. Four male Beagle of body weight between 12.8 and 13.9 kg, fasted for at least 17 hours, were orally administered the following preparations: • A) nimesulide at the dose of 10 mg/kg • B) inclusion compound nimesulide -β-cyclodextrin (molar ratio 1 : 1) at the dose of 46.84 mg/Kg, corresponding to 10 mg/kg of nimesulide.
(§2) The preparations were administered in gelatine capsule after a "wash-out" period of 10 days.
(§3) The blood samples from dogs were collected in heparinized tubes after 1, 2, 3, 4, 5, 6, 8, 24, 28, 32, 48 and 52 hours from the administration of the two preparations. The relative plasma samples were obtained by centrifugation for 15 minutes at 3000 rpm.
(§4) The plasma levels of nimesulide were determined by HPLC with UV detection according to the following procedure: aliquots of plasma up to 2.5 ml were adjusted to 3.5 ml with distilled water and acidified with 1.0 ml of N hydrochloric acid and poured on to a glass column (18 mm i.d. 220 mm of lenght) containing 15 ml of Extralat® Merck. After 15 minutes nimesulide was eluted with two aliquotes of 7.5 ml of dichloromethane containing 5% of methanol. The eluate was evaporated to dryness under reduced pressure and the residue was taken up with 200 µl of 2.5 µg/ml solution of butilhydroxyanisole as internal standard. A suitable amount was therefore injected into a column by using the following chromatographic conditions: • Column RPC₈, 5 µm, 250 x 3 mm i.d. Supelco; • Mobile phase : acetonitrile + water containing 80 mg/l of EDTA in the ratio V/V 37.5 and 62.5 respectively; • Flow rate : 1.0 ml/min. • λ of detection: 230 nm
(§5) The parameters of AUC. Cmax and Tmax were calculated by the plasma levels of nimesulide using a computer fitting system with TOP FIT package and the results were statistically evaluated by the ANOVA TWO WAYS procedure.

[1] = dog, oral, equivalent to 10 mg/kg nimesulide; mean of 4 dogs; computer fitting (TOP FIT) of plasma levels
Procedure: as §1, §2, §3, §4, §5

- AUC(0-t) (in vivo): 165 µg·h/mL
- Cmax (in vivo): 12100 ng/mL
- TCmax [1]: 4.4 h
Compound: CS(=O)(=O)Nc1ccc([N+](=O)[O-])cc1Oc1ccccc1 [Preparation A, 4-nitro-2-phenoxy-methansulfonanilide]
